# Measurements taken from PubChem BioAssay (NCI).
#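 The compound was tested at five concentrations on cells cultured in 96-well plates, with a 48-hour exposure period. GI50 marks 50% less growth. TGI marks complete inhibition of growth.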
# What was measured:
# Assay in all cases: NCI anticancer screen, dose series, 48 h
# [1] = system: SNB-19 CNS
# [2] = system: LOX IMVI melanoma
# [3] = system: UACC-257 melanoma
# [4] = system: COLO 205 colon
# [5] = system: NCI-H23 lung
# [6] = system: BT-549 breast
# [7] = system: SK-MEL-5 melanoma
# [8] = system: UACC-62 melanoma
# [9] = system: ACHN renal
# [10] = system: HOP-62 NSCLC
# [11] = system: SF-539 CNS
# [12] = system: SF-268 CNS
# [13] = system: RPMI-8226 leukemia
# [14] = system: M14 melanoma
# [15] = system: MCF7 breast
# [16] = system: MALME-3M melanoma
# [17] = system: MOLT-4 leukemia
# [18] = system: MDA-MB-468 breast
# [19] = system: HS 578T breast
# [20] = system: K-562 leukemia
# [21] = system: SK-MEL-2 melanoma
# [22] = system: SW-620 colon
# [23] = system: HCC-2998 colon
# [24] = system: MDA-MB-231 breast
# [25] = system: HT29 colon
# [26] = system: HL-60(TB) leukemia
# [27] = system: HOP-92 NSCLC
# [28] = system: T-47D breast
# [29] = system: KM12 colon
# [30] = system: HCT-15 colon
# [31] = system: HCT-116 colon
# [32] = system: RXF 393 renal
# [33] = system: A549 NSCLC
# [34] = system: OVCAR-4 ovarian
# [35] = system: SR leukemia
# [36] = system: OVCAR-5 ovarian
# [37] = system: EKVX NSCLC
# [38] = system: 786-0 renal
# [39] = system: OVCAR-3 ovarian
# [40] = system: NCI-H226 lung
# [41] = system: NCI-H522 lung
# [42] = system: DU-145 prostate
# [43] = system: U251 CNS
# [44] = system: SK-MEL-28 melanoma
# [45] = system: MDA-MB-435
# [46] = system: SNB-75 CNS
# [47] = system: PC-3 prostate
# [48] = system: IGROV1 ovarian
# [49] = system: NCI-H460 lung
# [50] = system: OVCAR-8 ovarian
# [51] = system: TK-10 renal
# [52] = system: A498 renal
# [53] = system: SN12C renal
# [54] = system: CAKI-1 renal
# [55] = system: SF-295 CNS
# [56] = system: UO-31 renal
# [57] = system: SK-OV-3 ovarian
# [58] = system: CCRF-CEM leukemia
smiles,measurement,setting,value
COc1ccc(NC2=C(I)C(=O)C(C)=C(C)C2=O)cc1,GI50,[1],15.4 µM
same,TGI,[1],34.1 µM
same,GI50,[2],2.37 µM
same,TGI,[2],8.8 µM
same,GI50,[3],2.42 µM
same,TGI,[3],8 µM
same,GI50,[4],14.8 µM
same,TGI,[4],28 µM
same,GI50,[5],4.11 µM
same,TGI,[5],17.6 µM
same,GI50,[6],12.4 µM
same,TGI,[6],25.8 µM
same,GI50,[7],4.74 µM
same,TGI,[7],18.2 µM
same,GI50,[8],9.68 µM
same,TGI,[8],23.8 µM
same,GI50,[9],4.61 µM
same,TGI,[9],17.5 µM
same,GI50,[10],14.9 µM
same,TGI,[10],36.6 µM
same,GI50,[11],2.5 µM
same,TGI,[11],7.23 µM
same,GI50,[12],12.3 µM
same,TGI,[12],55.6 µM
same,GI50,[13],3.08 µM
same,TGI,[13],20.2 µM
same,GI50,[14],15 µM
same,TGI,[14],28.7 µM
same,GI50,[15],2.71 µM
same,TGI,[15],10 µM
same,GI50,[16],11.6 µM
same,TGI,[16],23.9 µM
same,GI50,[17],0.625 µM
same,TGI,[17],32.6 µM
same,GI50,[18],0.416 µM
same,TGI,[18],2.49 µM
same,GI50,[19],14.5 µM
same,TGI,[19],50.2 µM
same,GI50,[20],2.99 µM
same,TGI,[20],> 100 µM
same,GI50,[21],3.14 µM
same,TGI,[21],12.4 µM
same,GI50,[22],11.7 µM
same,TGI,[22],29.2 µM
same,GI50,[23],16.7 µM
same,TGI,[23],33.5 µM
same,GI50,[24],2.37 µM
same,TGI,[24],8.48 µM
same,GI50,[25],18.2 µM
same,TGI,[25],48.8 µM
same,GI50,[26],0.341 µM
same,TGI,[26],1.54 µM
same,GI50,[27],7.46 µM
same,TGI,[27],26.2 µM
same,GI50,[28],1.98 µM
same,TGI,[28],16.3 µM
same,GI50,[29],6.96 µM
same,TGI,[29],42 µM
same,GI50,[30],13.5 µM
same,TGI,[30],27.9 µM
same,GI50,[31],2.93 µM
same,TGI,[31],10.4 µM
same,GI50,[32],3.6 µM
same,TGI,[32],14.8 µM
same,GI50,[33],16.9 µM
same,TGI,[33],39 µM
same,GI50,[34],3.98 µM
same,TGI,[34],15.2 µM
same,GI50,[35],1.07 µM
same,TGI,[35],> 100 µM
same,GI50,[36],11.7 µM
same,TGI,[36],25.6 µM
same,GI50,[37],4.25 µM
same,TGI,[37],16.7 µM
same,GI50,[38],8.56 µM
same,TGI,[38],27.4 µM
same,GI50,[39],2.75 µM
same,TGI,[39],9.45 µM
same,GI50,[40],12.5 µM
same,TGI,[40],28.9 µM
same,GI50,[41],6.54 µM
same,TGI,[41],21 µM
same,GI50,[42],16.1 µM
same,TGI,[42],30.7 µM
same,GI50,[43],11.5 µM
same,TGI,[43],24.7 µM
same,GI50,[44],14.3 µM
same,TGI,[44],28.9 µM
same,GI50,[45],1.82 µM
same,TGI,[45],3.37 µM
same,GI50,[46],15.9 µM
same,TGI,[46],35.6 µM
same,GI50,[47],3.42 µM
same,TGI,[47],> 100 µM
same,GI50,[48],4.37 µM
same,TGI,[48],17.3 µM
same,GI50,[49],15.7 µM
same,TGI,[49],32.8 µM
same,GI50,[50],2.26 µM
same,TGI,[50],6.54 µM
same,GI50,[51],17 µM
same,TGI,[51],37.2 µM
same,GI50,[52],24.6 µM
same,TGI,[52],68.3 µM
same,GI50,[53],4.04 µM
same,TGI,[53],15.5 µM
same,GI50,[54],3.89 µM
same,TGI,[54],22 µM
same,GI50,[55],13.9 µM
same,TGI,[55],28.4 µM
same,GI50,[56],6.03 µM
same,TGI,[56],19.8 µM
same,GI50,[57],18 µM
same,TGI,[57],62.9 µM
same,GI50,[58],1.36 µM
same,TGI,[58],35.4 µM
COc1ccccc1NC(=O)c1ccc(NC(=O)CCl)s1,GI50,[1],32.4 µM
same,TGI,[1],> 100 µM
same,GI50,[2],4.81 µM
same,TGI,[2],18.5 µM
same,GI50,[3],24.3 µM
same,TGI,[3],> 100 µM
same,GI50,[4],15.1 µM
same,TGI,[4],35.5 µM
same,GI50,[5],13.6 µM
same,TGI,[5],31.2 µM
same,GI50,[6],12.2 µM
same,TGI,[6],26.8 µM
same,GI50,[7],15.3 µM
same,TGI,[7],29.4 µM
same,GI50,[8],16.1 µM
same,TGI,[8],31 µM
same,GI50,[9],10.5 µM
same,TGI,[9],24.5 µM
same,GI50,[10],36.4 µM
same,TGI,[10],> 100 µM
same,GI50,[11],16.2 µM
same,TGI,[11],30.8 µM
same,GI50,[12],18.8 µM
same,TGI,[12],64.2 µM
same,GI50,[13],13.6 µM
same,TGI,[13],38.6 µM
same,GI50,[14],13.1 µM
same,TGI,[14],28.7 µM
same,GI50,[15],5.02 µM
same,TGI,[15],44 µM
same,GI50,[16],15.1 µM
same,TGI,[16],30.5 µM
same,GI50,[17],4.23 µM
same,TGI,[17],40.6 µM
same,GI50,[18],12.4 µM
same,TGI,[18],27.7 µM
same,GI50,[19],15.1 µM
same,TGI,[19],54.4 µM
same,GI50,[20],2.65 µM
same,TGI,[20],> 100 µM
same,GI50,[21],13.9 µM
same,TGI,[21],29.2 µM
same,GI50,[22],4.27 µM
same,TGI,[22],21.7 µM
same,GI50,[23],28.6 µM
same,TGI,[23],> 100 µM
same,GI50,[24],15.2 µM
same,TGI,[24],33.7 µM
same,GI50,[25],8.76 µM
same,TGI,[25],22.9 µM
same,GI50,[26],4.76 µM
same,TGI,[26],35.6 µM
same,GI50,[27],16.5 µM
same,TGI,[27],34.7 µM
same,GI50,[28],42.3 µM
same,TGI,[28],> 100 µM
same,GI50,[29],14.7 µM
same,TGI,[29],38.8 µM
same,GI50,[30],4.29 µM
same,TGI,[30],29 µM
same,GI50,[31],5.52 µM
same,TGI,[31],30.5 µM
same,GI50,[32],11.6 µM
same,TGI,[32],25.1 µM
same,GI50,[33],14.7 µM
same,TGI,[33],40 µM
same,GI50,[34],21 µM
same,TGI,[34],68.7 µM
same,GI50,[35],3.11 µM
same,TGI,[35],> 100 µM
same,GI50,[36],23.6 µM
same,TGI,[36],49.2 µM
same,GI50,[37],18 µM
same,TGI,[37],67.7 µM
same,GI50,[38],12.3 µM
same,TGI,[38],26.1 µM
same,GI50,[39],13.6 µM
same,TGI,[39],29 µM
same,GI50,[40],14.6 µM
same,TGI,[40],32.4 µM
same,GI50,[41],10.6 µM
same,TGI,[41],24 µM
same,GI50,[42],24.7 µM
same,TGI,[42],85 µM
same,GI50,[43],13.9 µM
same,TGI,[43],28.1 µM
same,GI50,[44],21.9 µM
same,TGI,[44],54.1 µM
same,GI50,[45],15.7 µM
same,TGI,[45],32.5 µM
same,GI50,[46],11.5 µM
same,TGI,[46],83.2 µM
same,GI50,[47],11.1 µM
same,TGI,[47],28.4 µM
same,GI50,[48],15.6 µM
same,TGI,[48],34.9 µM
same,GI50,[49],11 µM
same,TGI,[49],35.4 µM
same,GI50,[50],12.7 µM
same,TGI,[50],33.8 µM
same,GI50,[51],20.4 µM
same,TGI,[51],73.6 µM
same,GI50,[52],87.4 µM
same,TGI,[52],> 100 µM
same,GI50,[53],13.4 µM
same,TGI,[53],36 µM
same,GI50,[54],12.8 µM
same,TGI,[54],29 µM
same,GI50,[55],25.9 µM
same,TGI,[55],> 100 µM
same,GI50,[56],13.7 µM
same,TGI,[56],27.3 µM
same,GI50,[57],29.5 µM
same,TGI,[57],74.9 µM
same,GI50,[58],3.62 µM
same,TGI,[58],88.1 µM
